Experimental data reported in patent US20140094424A1, “MICROBICIDAL COMPOSITIONS AND METHODS OF PRODUCTION USE THEREOF” (priority 2011, published 2014).
Where two headings read alike, the source gives them in different places.

How the values were obtained:
[1] = test system: Ralstonia pickettii (AU); assay type: cell-based
Method: (§1) The stock organisms were thawed and subbed prior to beginning the MBC test. Molds were subbed to SDA plates one week before, and the bacteria were subbed to TAT agar plates 24 hours prior to the start of the test. All plates were incubated at 32 degrees C.
(§2) Each bacterial organism was inoculated into 40 ml sterile saline in a centrifuge tube to create a density of MacFarland #1. Two serial dilutions of 1:100 were then made, resulting in 10^−2 and 10^−4 concentrations. Each dilution was vortexed before it was sampled, and sterile Eppendorf pipette tips were used to make each transfer. The 10^−4 dilution was spiral plated to yield the initial inoculum concentration.
(§3) MBC trays were set up with the prepared test reagent. Using a Matrix pipettor, 100 μl aliquots of reagent were distributed into the wells, diluting the amount of preservative from 100% to 10% increments, using unpreserved reagent as the diluent. In one row, 100% non-preserved reagent acted as a positive control and served as a benchmark for a full mat of growth. In well #12H, 100 μl unpreserved reagent was pipetted, and this well was not inoculated with organisms, as it served as the negative control. Once all of the trays were prepared, the prepared bacteria/mold suspensions were poured into the MBC inoculating trays. These were placed onto the reagent trays, and 0.01 ml inoculum was introduced into the 100 μl of reagent in each well.
(§4) This was done by dipping a sterile cotton swab into each well, and absorbing all of the liquid in the well. The swab was rolled onto a TAT agar plate ensuring that the entire swab touches the agar. Plates ware incubated at 32 degrees C. for 48 hours to 7 days, depending on the organism. Observations for growth were performed by a scoring matrix using + for a full mat, +/− for some growth, a numerical value for an actual colony count, and—for no growth.
(§5) Below are tables that contain the data obtained in Example 1. The MBC test is scored by (+) indicating a full grown mat of organisms, equivalent to the organisms in the unpreserved reagent. (+/−) indicates there is some kill evident disturbing that mat or bringing the quantities down to an almost countable level. An actual number is the actual number of colonies growing at that concentration of preservative. (−) indicates no growth found. The MBC trays were stored at room temperature for the entire test.
(§6) The materials and methods and analysis of the MBC test were the same as in Example 1.

[2] = test system: Aspergillus glaucus- DMO (Q); experiment: MBC (minimum bactericidal concentration) test in Wash NEXT reagent; assay type: cell-based; conditions: for total kill at % preservative (MBC): at 14 days
Method: as §1
as §2, with “For the molds, each” for “Each bacterial”, “#5.” for “#1.”
as §3, §4, §5, §6

[N-]=[N+]=[N-] [Sodium Azide, sodium azide]
MBC test growth score ([1]; 10% preservative, 8 hour): + | MBC test growth score ([1]; 10% preservative, 24 hour): + | MBC test growth score ([1]; 10% preservative, 48 hour): + | MBC test growth score ([1]; 10% preservative, 72 hour): + | MBC test growth score ([1]; 20% preservative, 8 hour): + | MBC test growth score ([1]; 20% preservative, 24 hour): + | MBC test growth score ([1]; 20% preservative, 48 hour): + | MBC test growth score ([1]; 20% preservative, 72 hour): +/− | MBC test growth score ([1]; 30% preservative, 8 hour): + | MBC test growth score ([1]; 30% preservative, 24 hour): + | MBC test growth score ([1]; 30% preservative, 48 hour): +/− | MBC test growth score ([1]; 30% preservative, 72 hour): +/− | MBC test growth score ([1]; 40% preservative, 8 hour): + | MBC test growth score ([1]; 40% preservative, 24 hour): + | MBC test growth score ([1]; 40% preservative, 48 hour): +/− | MBC test growth score ([1]; 40% preservative, 72 hour): +/− | MBC test growth score ([1]; 50% preservative, 8 hour): + | MBC test growth score ([1]; 50% preservative, 24 hour): + | MBC test growth score ([1]; 50% preservative, 48 hour): +/− | MBC test growth score ([1]; 50% preservative, 72 hour): +/− | MBC test growth score ([1]; 60% preservative, 8 hour): + | MBC test growth score ([1]; 60% preservative, 24 hour): + | MBC test growth score ([1]; 60% preservative, 48 hour): +/− | MBC test growth score ([1]; 60% preservative, 72 hour): 10 | MBC test growth score ([1]; 70% preservative, 8 hour): + | MBC test growth score ([1]; 70% preservative, 24 hour): + | MBC test growth score ([1]; 70% preservative, 48 hour): +/− | MBC test growth score ([1]; 70% preservative, 72 hour): 8 | MBC test growth score ([1]; 80% preservative, 8 hour): + | MBC test growth score ([1]; 80% preservative, 24 hour): +/− | MBC test growth score ([1]; 80% preservative, 48 hour): +/− | MBC test growth score ([1]; 80% preservative, 72 hour): 7 | MBC test growth score ([1]; 90% preservative, 8 hour): + | MBC test growth score ([1]; 90% preservative, 24 hour): +/− | MBC test growth score ([1]; 90% preservative, 48 hour): +/− | MBC test growth score ([1]; 90% preservative, 72 hour): 4 | MBC test growth score ([1]; 100% preservative, 8 hour): + | MBC test growth score ([1]; 100% preservative, 24 hour): +/− | MBC test growth score ([1]; 100% preservative, 48 hour): +/− | MBC test growth score ([1]; 100% preservative, 72 hour): 2 | total kill at % preservative (MBC) ([1]; at 72 hours, listed as Na Azide): No kill @ 100% | MBC test growth score ([2]; 10% preservative, 8 hour): + | MBC test growth score ([2]; 10% preservative, 24 hour): + | MBC test growth score ([2]; 10% preservative, 48 hour): + | MBC test growth score ([2]; 10% preservative, 72 hour): + | MBC test growth score ([2]; 10% preservative, 7 day): + | MBC test growth score ([2]; 10% preservative, 14 day): +/− | MBC test growth score ([2]; 20% preservative, 8 hour): + | MBC test growth score ([2]; 20% preservative, 24 hour): + | MBC test growth score ([2]; 20% preservative, 48 hour): + | MBC test growth score ([2]; 20% preservative, 72 hour): + | MBC test growth score ([2]; 20% preservative, 7 day): + | MBC test growth score ([2]; 20% preservative, 14 day): +/− | MBC test growth score ([2]; 30% preservative, 8 hour): + | MBC test growth score ([2]; 30% preservative, 24 hour): + | MBC test growth score ([2]; 30% preservative, 48 hour): + | MBC test growth score ([2]; 30% preservative, 72 hour): + | MBC test growth score ([2]; 30% preservative, 7 day): + | MBC test growth score ([2]; 30% preservative, 14 day): +/− | MBC test growth score ([2]; 40% preservative, 8 hour): + | MBC test growth score ([2]; 40% preservative, 24 hour): + | MBC test growth score ([2]; 40% preservative, 48 hour): + | MBC test growth score ([2]; 40% preservative, 72 hour): + | MBC test growth score ([2]; 40% preservative, 7 day): + | MBC test growth score ([2]; 40% preservative, 14 day): +/− | MBC test growth score ([2]; 50% preservative, 8 hour): + | MBC test growth score ([2]; 50% preservative, 24 hour): + | MBC test growth score ([2]; 50% preservative, 48 hour): + | MBC test growth score ([2]; 50% preservative, 72 hour): + | MBC test growth score ([2]; 50% preservative, 7 day): + | MBC test growth score ([2]; 50% preservative, 14 day): +/− | MBC test growth score ([2]; 60% preservative, 8 hour): + | MBC test growth score ([2]; 60% preservative, 24 hour): + | MBC test growth score ([2]; 60% preservative, 48 hour): + | MBC test growth score ([2]; 60% preservative, 72 hour): + | MBC test growth score ([2]; 60% preservative, 7 day): + | MBC test growth score ([2]; 60% preservative, 14 day): +/− | MBC test growth score ([2]; 70% preservative, 8 hour): + | MBC test growth score ([2]; 70% preservative, 24 hour): + | MBC test growth score ([2]; 70% preservative, 48 hour): + | MBC test growth score ([2]; 70% preservative, 72 hour): + | MBC test growth score ([2]; 70% preservative, 7 day): + | MBC test growth score ([2]; 70% preservative, 14 day): +/− | MBC test growth score ([2]; 80% preservative, 8 hour): + | MBC test growth score ([2]; 80% preservative, 24 hour): + | MBC test growth score ([2]; 80% preservative, 48 hour): + | MBC test growth score ([2]; 80% preservative, 72 hour): + | MBC test growth score ([2]; 80% preservative, 7 day): + | MBC test growth score ([2]; 80% preservative, 14 day): +/− | MBC test growth score ([2]; 90% preservative, 8 hour): + | MBC test growth score ([2]; 90% preservative, 24 hour): + | MBC test growth score ([2]; 90% preservative, 48 hour): + | MBC test growth score ([2]; 90% preservative, 72 hour): + | MBC test growth score ([2]; 90% preservative, 7 day): + | MBC test growth score ([2]; 90% preservative, 14 day): +/− | MBC test growth score ([2]; 100% preservative, 8 hour): + | MBC test growth score ([2]; 100% preservative, 24 hour): + | MBC test growth score ([2]; 100% preservative, 48 hour): + | MBC test growth score ([2]; 100% preservative, 72 hour): + | MBC test growth score ([2]; 100% preservative, 7 day): + | MBC test growth score ([2]; 100% preservative, 14 day): +/− | total kill at % preservative (MBC) ([2]; listed as Na Azide): No kill @ 100%

Cc1cc(NS(=O)(=O)c2ccc(N)cc2)no1 [Sulfamethoxazole, sulfamethoxazole]
MBC test growth score ([1]; 10% preservative, 8 hour): + | MBC test growth score ([1]; 10% preservative, 24 hour): + | MBC test growth score ([1]; 10% preservative, 48 hour): + | MBC test growth score ([1]; 10% preservative, 72 hour): + | MBC test growth score ([1]; 20% preservative, 8 hour): + | MBC test growth score ([1]; 20% preservative, 24 hour): + | MBC test growth score ([1]; 20% preservative, 48 hour): + | MBC test growth score ([1]; 20% preservative, 72 hour): + | MBC test growth score ([1]; 30% preservative, 8 hour): + | MBC test growth score ([1]; 30% preservative, 24 hour): + | MBC test growth score ([1]; 30% preservative, 48 hour): + | MBC test growth score ([1]; 30% preservative, 72 hour): + | MBC test growth score ([1]; 40% preservative, 8 hour): + | MBC test growth score ([1]; 40% preservative, 24 hour): + | MBC test growth score ([1]; 40% preservative, 48 hour): + | MBC test growth score ([1]; 40% preservative, 72 hour): + | MBC test growth score ([1]; 50% preservative, 8 hour): + | MBC test growth score ([1]; 50% preservative, 24 hour): + | MBC test growth score ([1]; 50% preservative, 48 hour): + | MBC test growth score ([1]; 50% preservative, 72 hour): + | MBC test growth score ([1]; 60% preservative, 8 hour): + | MBC test growth score ([1]; 60% preservative, 24 hour): + | MBC test growth score ([1]; 60% preservative, 48 hour): + | MBC test growth score ([1]; 60% preservative, 72 hour): + | MBC test growth score ([1]; 70% preservative, 8 hour): + | MBC test growth score ([1]; 70% preservative, 24 hour): + | MBC test growth score ([1]; 70% preservative, 48 hour): + | MBC test growth score ([1]; 70% preservative, 72 hour): + | MBC test growth score ([1]; 80% preservative, 8 hour): + | MBC test growth score ([1]; 80% preservative, 24 hour): + | MBC test growth score ([1]; 80% preservative, 48 hour): + | MBC test growth score ([1]; 80% preservative, 72 hour): + | MBC test growth score ([1]; 90% preservative, 8 hour): + | MBC test growth score ([1]; 90% preservative, 24 hour): + | MBC test growth score ([1]; 90% preservative, 48 hour): + | MBC test growth score ([1]; 90% preservative, 72 hour): + | MBC test growth score ([1]; 100% preservative, 8 hour): + | MBC test growth score ([1]; 100% preservative, 24 hour): + | MBC test growth score ([1]; 100% preservative, 48 hour): + | MBC test growth score ([1]; 100% preservative, 72 hour): + | total kill at % preservative (MBC) [2]: No kill @ 100%
